In patent US5977133A, “Pyridone antibiotic with improved safety profile” (priority 1998, dated 1999):
Counter-ions that a name gives are not always drawn.

Tests used:
Format in all cases: cell-based
[1] = test system: S. pyogenes; experiment: In vitro MIC, agar dilution; settings: Streptococcus pyogenes
[2] = test system: C. difficile; experiment: In vitro MIC, agar dilution; settings: Clostridioides difficile
[3] = test system: E. coli; experiment: In vitro MIC, agar dilution; settings: Escherichia coli, 25 isolates
Method: (§1) Each plate was inoculated with 1:100 (or 1:10 for slow-growing strains, primarily Micrococcus and Streptococcus) dilutions of up to 32 different microorganisms, using a Steers replicator block calibrated to deliver approximately 10^4 colony forming units (CFU's). The inoculated plates were incubated at from about 35° C. to about 37 ° C. for approximately 20-24 hours. In addition, a control plate using BHI agar containing no test compound was prepared and incubated at the beginning and at the end of each test. The quinolone antibacterial ciprofloxacin was used as a control ("Cntl").
(§2) The numbers below the microorganism species indicate the nunbers of isolates tested. […] The MIC is defined as the lowest concentration of test compound yielding no growth (a slight haze or sparsely isolated colonies at the inoculum spot) as compared to the growth control containing no test compound.

[4] = test system: Salmonella spp.; experiment: In vitro MIC, agar dilution; settings: 23 isolates
Method: as §1, §2

[5] = test system: P. aeruginosa (CiproS); experiment: In vitro MIC, agar dilution; settings: Pseudomonas aeruginosa
[6] = test system: N. gonorrhoeae; experiment: In vitro MIC, agar dilution; settings: Neisseria gonorrhoeae
[7] = test system: Shigella spp.; experiment: microbe, parasite or virus in culture; settings: read-out: MIC Range
[8] = test system: S. pneumoniae (PenR); experiment: In vitro MIC, agar dilution; settings: Streptococcus pneumoniae
[9] = test system: M. pneumoniae; experiment: In vitro MIC, agar dilution; settings: Mycoplasmoides pneumoniae, read-out: MIC Range
[10] = test system: S. epidermidis (CiproR); experiment: In vitro MIC, agar dilution; settings: Staphylococcus epidermidis
[11] = test system: H. influenzae; experiment: In vitro MIC, agar dilution; settings: Haemophilus influenzae
[12] = test system: E. faecium (CiproR); experiment: In vitro MIC, agar dilution; settings: Enterococcus faecium, read-out: MIC Range
[13] = test system: Enterococcus spp. (VanR); experiment: In vitro MIC, agar dilution; settings: Enterococcus
[14] = test system: S. pneumoniae (CiproR); experiment: In vitro MIC, agar dilution; settings: Streptococcus pneumoniae, read-out: MIC Range
[15] = test system: S. aureus (CiproR); experiment: In vitro MIC, agar dilution; settings: Staphylococcus aureus
[16] = test system: S. aureus (CiproS); experiment: In vitro MIC, agar dilution; settings: Staphylococcus aureus
[17] = test system: M. catarrhalis; experiment: In vitro MIC, agar dilution; settings: Moraxella catarrhalis
[18] = test system: Legionella spp.; experiment: microbe, parasite or virus in culture; settings: Legionella
[19] = test system: C. perfringens; experiment: microbe, parasite or virus in culture; settings: Clostridium perfringens
[20] = test system: Providencia spp.; experiment: In vitro MIC, agar dilution; settings: Providencia
[21] = test system: M. avium; experiment: In vitro MIC, agar dilution; settings: Mycobacterium avium
[22] = test system: E. faecalis (VanS); experiment: In vitro MIC, agar dilution; settings: Enterococcus faecalis
[23] = test system: S. epidermidis (CiproS); experiment: In vitro MIC, agar dilution; settings: Staphylococcus epidermidis
[24] = test system: Enterobacter spp.; experiment: In vitro MIC, agar dilution; settings: Enterobacter
[25] = test system: H. pylori; experiment: In vitro MIC, agar dilution; settings: Helicobacter pylori
[26] = test system: C. freundii; experiment: In vitro MIC, agar dilution; settings: Citrobacter freundii
[27] = test system: S. pneumoniae (PenS); experiment: In vitro MIC, agar dilution; settings: Streptococcus pneumoniae
[28] = test system: E. faecium (CiproS); experiment: In vitro MIC, agar dilution; settings: Enterococcus faecium
[29] = test system: B. fragilis; experiment: In vitro MIC, agar dilution; settings: Bacteroides fragilis
[30] = test system: P. mirabilis; experiment: In vitro MIC, agar dilution; settings: Proteus mirabilis
[31] = test system: P. aeruginosa (CiproR); experiment: In vitro MIC, agar dilution; settings: Pseudomonas aeruginosa
[32] = test system: Klebsiella spp.; experiment: In vitro MIC, agar dilution; settings: Klebsiella
[33] = test system: E. faecium (VanS); experiment: In vitro MIC, agar dilution; settings: Enterococcus faecium

## Cc1c(N2C[C@@H]3CCCN[C@@H]3C2)c(F)cn2c(=O)c(C(=O)O)cc(C3CC3)c12 [Example 4, 1-cyclopropyl-8-(S,S-2,8-diaza-8-bicyclo[4.3.0]nonyl)-7-fluoro-4H-9-methyl-4-oxo-quinolizine-3-carboxylic acid hydrochloride]
[1]
  MIC50: 0.06 µg/mL
  MIC90: 0.06 µg/mL
[1]; read-out: MIC Range
  MIC: 0.03 to 0.06 µg/mL
[2]
  MIC50: 0.25 µg/mL
  MIC90: 0.25 µg/mL
[2]; read-out: MIC Range
  MIC: 0.03 to 0.25 µg/mL
[3]
  MIC: ≤ 0.008 µg/mL
[3]; read-out: MIC50
  MIC50: ≤ 0.008 µg/mL
[3]; read-out: MIC90
  MIC90: ≤ 0.008 µg/mL
[4]
  MIC: 0.004 to 0.12 µg/mL
[4]; read-out: MIC50
  MIC50: 0.03 µg/mL
[4]; read-out: MIC90
  MIC90: 0.06 µg/mL
[5]
  MIC50: 0.12 µg/mL
  MIC90: 1 µg/mL
[5]; read-out: MIC Range
  MIC: 0.03 to 2 µg/mL
[6]
  MIC50: 0.002 µg/mL
  MIC90: 0.015 µg/mL
[6]; read-out: MIC Range
  MIC: 0.002 to 0.015 µg/mL
[7]
  MIC: 0.004 to 0.015 µg/mL
[8]
  MIC50: 0.03 µg/mL
  MIC90: 0.03 µg/mL
[8]; read-out: MIC Range
  MIC: 0.008 to 0.03 µg/mL
[9]
  MIC: 0.015 to 0.03 µg/mL
[10]
  MIC50: 0.25 µg/mL
  MIC90: 0.5 µg/mL
[10]; read-out: MIC Range
  MIC: 0.12 to 4 µg/mL
[11]
  MIC50: 0.015 µg/mL
  MIC90: 0.015 µg/mL
[11]; read-out: MIC Range
  MIC: 0.004 to 0.015 µg/mL
[12]
  MIC: 0.5 to 4 µg/mL
[13]
  MIC50: 1 µg/mL
  MIC90: 1 µg/mL
[13]; read-out: MIC Range
  MIC: 0.06 to 4 µg/mL
[14]
  MIC: 0.12 to 0.25 µg/mL
[15]
  MIC50: 0.06 µg/mL
  MIC90: 0.25 µg/mL
[15]; read-out: MIC Range
  MIC: 0.008 to 0.5 µg/mL
[16]
  MIC50: 0.002 µg/mL
  MIC90: 0.002 µg/mL
[16]; read-out: MIC Range
  MIC: 0.0005 to 0.002 µg/mL
[17]
  MIC50: 0.015 µg/mL
  MIC90: 0.03 µg/mL
[17]; read-out: MIC Range
  MIC: 0.015 to 0.03 µg/mL
[18]
  MIC50: 0.25 µg/mL
  MIC90: 0.25 µg/mL
[18]; read-out: MIC Range
  MIC: 0.25 to 0.5 µg/mL
[19]
  MIC50: 0.5 µg/mL
  MIC90: 1 µg/mL
[19]; read-out: MIC Range
  MIC: 0.25 to 1 µg/mL
[20]
  MIC50: 0.03 µg/mL
  MIC90: 0.12 µg/mL
[20]; read-out: MIC Range
  MIC: 0.008 to 0.25 µg/mL
[21]
  MIC50: 0.25 µg/mL
  MIC90: 1 µg/mL
[21]; read-out: MIC Range
  MIC: 0.25 to 4 µg/mL
[22]
  MIC50: 0.12 µg/mL
  MIC90: 0.25 µg/mL
[22]; read-out: MIC Range
  MIC: 0.12 to 0.25 µg/mL
[23]
  MIC50: 0.03 µg/mL
  MIC90: 0.03 µg/mL
[23]; read-out: MIC Range
  MIC: 0.015 to 0.03 µg/mL
[24]
  MIC50: 0.03 µg/mL
  MIC90: 0.12 µg/mL
[24]; read-out: MIC Range
  MIC: 0.015 to 0.12 µg/mL
[25]
  MIC50: 0.12 µg/mL
  MIC90: 0.25 µg/mL
[25]; read-out: MIC Range
  MIC: 0.06 to 0.25 µg/mL
[26]
  MIC50: 0.03 µg/mL
  MIC90: 0.25 µg/mL
[26]; read-out: MIC Range
  MIC: 0.015 to 0.25 µg/mL
[27]
  MIC50: 0.06 µg/mL
  MIC90: 0.12 µg/mL
[27]; read-out: MIC Range
  MIC: 0.06 to 0.12 µg/mL
[28]
  MIC50: 0.5 µg/mL
  MIC90: 1 µg/mL
[28]; read-out: MIC Range
  MIC: 0.25 to 1 µg/mL
[29]
  MIC50: 0.25 µg/mL
  MIC90: 0.25 µg/mL
[29]; read-out: MIC Range
  MIC: 0.12 to 0.5 µg/mL
[30]
  MIC50: 0.06 µg/mL
  MIC90: 0.12 µg/mL
[30]; read-out: MIC Range
  MIC: 0.03 to 0.12 µg/mL
[31]
  MIC50: 8 µg/mL
  MIC90: 16 µg/mL
[31]; read-out: MIC Range
  MIC: 4 to 64 µg/mL
[32]
  MIC50: 0.06 µg/mL
  MIC90: 0.06 µg/mL
[32]; read-out: MIC Range
  MIC: 0.008 to 0.25 µg/mL
[33]
  MIC50: 0.5 µg/mL
  MIC90: 1 µg/mL
[33]; read-out: MIC Range
  MIC: 0.12 to 1 µg/mL
